Assay results reported in PubChem BioAssay (NCI).
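Values below derive from 48-hour exposures of cells grown in 96-well plates, with endpoints linearly interpolated between the two concentrations bracketing the appropriate inhibition level. Abbreviation: GI50, concentration required for 50% inhibition of growth. TGI marks complete inhibition of growth.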

How the values were obtained:
Test in all cases: growth of human tumour cells (NCI), 48 h
[1] = test system: IGROV1 ovarian
[2] = test system: SF-268 CNS
[3] = test system: SF-539 CNS
[4] = test system: U251 CNS
[5] = test system: PC-3 prostate
[6] = test system: HCC-2998 colon
[7] = test system: UACC-257 melanoma
[8] = test system: RXF 393 renal
[9] = test system: CAKI-1 renal
[10] = test system: K-562 leukemia

CN1CCC(CNc2cc(C3(C(=O)Nc4cc(C(=O)Nc5ccc(Cl)c(C(F)(F)F)c5)ccc4F)CC3)ncn2)CC1
GI50 [1]: 2.17 µM | TGI [1]: 6.19 µM | GI50 [2]: 2.08 µM | TGI [2]: 5.5 µM | GI50 [3]: 1.61 µM | TGI [3]: 3.19 µM | GI50 [4]: 1.63 µM | TGI [4]: 3.62 µM | GI50 [5]: 1.04 µM | TGI [5]: 3.3 µM | GI50 [6]: 2.39 µM | TGI [6]: 5.22 µM

CN(C)CCNc1ccc2c(=O)n(CCN(C)C)c(=O)n3c4ccc(O)cc4c(=O)c1c23
TGI [1]: 0.53 µM | TGI [2]: 0.416 µM | TGI [3]: < 0.0389 µM | TGI [4]: 0.439 µM | TGI [7]: 0.795 µM | TGI [8]: 0.224 µM | TGI [5]: 4.52 µM | TGI [6]: 0.186 µM

C=CCC1(C#N)C(=S)NC2=C(C(=O)CC(C)(C)C2)C1c1ccccc1 (stereo unspecified)
TGI [9]: > 100 µM | TGI [1]: > 100 µM | TGI [3]: > 100 µM | TGI [4]: > 100 µM | TGI [10]: > 100 µM | TGI [8]: > 100 µM | TGI [5]: > 100 µM

CNC(C)(C)Cc1ccc(Cl)cc1
TGI [9]: > 100 µM | TGI [1]: > 100 µM | TGI [2]: > 100 µM | TGI [3]: > 100 µM | TGI [4]: > 100 µM | TGI [10]: > 100 µM | TGI [7]: > 100 µM | TGI [8]: > 100 µM | TGI [6]: > 100 µM

O=C(O)CC(Cc1ccccc1Cl)C(=O)O (stereo unspecified)
TGI [9]: > 100 µM | TGI [1]: > 100 µM | TGI [2]: > 100 µM | TGI [4]: > 100 µM | TGI [10]: > 100 µM | TGI [7]: > 100 µM | TGI [8]: > 100 µM | TGI [5]: > 100 µM | TGI [6]: > 100 µM

CCC/C(Cl)=N\OC(=O)Nc1ccc(F)cc1
TGI [9]: 3.47 µM | TGI [1]: 33.3 µM | TGI [2]: > 65 µM | TGI [4]: 34.8 µM | TGI [10]: 4 µM | TGI [7]: 30.5 µM | TGI [8]: 33.1 µM | TGI [5]: 31.2 µM | TGI [6]: 32.4 µM

O=c1[nH]c(Nc2ccccc2)nc2c1ncn2CC(O)CSCCO (stereo unspecified)
TGI [9]: > 100 µM | TGI [1]: > 100 µM | TGI [2]: > 100 µM | TGI [3]: > 100 µM | TGI [4]: > 100 µM | TGI [7]: > 100 µM | TGI [5]: > 100 µM | TGI [6]: > 100 µM

COc1cc2c(c3c1c(=O)c1ccccc1n3C)C=CC1(CCCC1)O2
TGI [9]: 6.33 µM | TGI [1]: 28.4 µM | TGI [2]: 46.8 µM | TGI [3]: 17.3 µM | TGI [4]: 31.9 µM | TGI [10]: 21.7 µM | TGI [7]: 31 µM | TGI [8]: 22.8 µM | TGI [6]: 37.7 µM

COc1ccc(N2CC(=O)N(C(=O)COc3ccc(OCC(=O)N4C(=O)CN(c5ccc(OC)cc5)C4=S)cc3)C2=S)cc1
TGI [9]: > 100 µM | TGI [1]: > 100 µM | TGI [2]: > 100 µM | TGI [4]: > 100 µM | TGI [10]: > 100 µM | TGI [7]: > 100 µM | TGI [8]: > 100 µM | TGI [5]: > 100 µM | TGI [6]: > 100 µM

O=C(/C=C(/C=C/c1ccc2[nH]ccc2c1)OB(F)F)/C=C/c1ccc2[nH]ccc2c1
GI50 [9]: 2.56 µM | TGI [9]: 10.1 µM | GI50 [2]: 1.51 µM | TGI [2]: 6.41 µM | GI50 [3]: 2.68 µM | TGI [3]: 9.29 µM | GI50 [7]: 12.2 µM | TGI [7]: > 100 µM | GI50 [8]: 1.56 µM | TGI [8]: 3.63 µM | GI50 [5]: 1.49 µM | TGI [5]: > 100 µM

Cc1ccc2c(c1)-c1nc(N)c(C#N)c(-c3ccc(Cl)cc3)c1CCS2(=O)=O
TGI [9]: > 100 µM | TGI [1]: > 100 µM | TGI [2]: > 100 µM | TGI [4]: > 100 µM | TGI [7]: > 100 µM | TGI [5]: > 100 µM | TGI [6]: > 100 µM

COc1cc2c(c(O)c1O)C(=O)C1CCC(=O)N1C2c1cccc2ccccc12 (stereo unspecified)
TGI [1]: > 50 µM | TGI [2]: > 50 µM | TGI [3]: > 50 µM | TGI [4]: > 50 µM | TGI [10]: > 50 µM | TGI [7]: > 50 µM | TGI [8]: > 50 µM | TGI [5]: > 50 µM

Cn1nc2ccc([N+](=O)[O-])c(Cn3nnc4ccccc43)c2n1
TGI [9]: > 100 µM | TGI [1]: > 100 µM | TGI [2]: > 100 µM | TGI [3]: > 100 µM | TGI [4]: > 100 µM | TGI [10]: > 100 µM | TGI [7]: > 100 µM | TGI [8]: > 100 µM | TGI [6]: > 100 µM

N#CN1C2CCC1CC(=O)C2
TGI [9]: > 100 µM | TGI [1]: > 100 µM | TGI [2]: > 100 µM | TGI [3]: > 100 µM | TGI [4]: > 100 µM | TGI [10]: > 100 µM | TGI [7]: > 100 µM | TGI [5]: > 100 µM | TGI [6]: > 100 µM

COC(=O)C1(NC(=O)C(CC(=O)OCc2ccccc2)NC(=O)OCc2ccccc2)CCCCCC1 (stereo unspecified)
TGI [9]: 48.5 µM | TGI [1]: > 100 µM | TGI [2]: > 100 µM | TGI [3]: 49.2 µM | TGI [4]: > 100 µM | TGI [10]: 82.9 µM | TGI [8]: > 100 µM | TGI [5]: > 100 µM

Cc1cc(C)nc(NS(=O)(=O)c2ccc(NC(=O)c3c4ccccc4nc4ccccc34)cc2)n1
TGI [9]: > 100 µM | TGI [1]: > 100 µM | TGI [2]: > 100 µM | TGI [3]: > 100 µM | TGI [4]: > 100 µM | TGI [10]: > 100 µM | TGI [7]: > 100 µM | TGI [5]: > 100 µM | TGI [6]: > 100 µM

O=C(Nc1ccccc1F)c1cc2ccc(O)cc2oc1=Nc1cccc(F)c1
TGI [9]: 40.6 µM | TGI [1]: 14.6 µM | TGI [2]: 79.1 µM | TGI [3]: 42.7 µM | TGI [4]: 29.8 µM | TGI [10]: 79.3 µM | TGI [7]: 65.6 µM | TGI [5]: 48 µM | TGI [6]: 33.8 µM
